Patent US4605744A, “Imidazole derivatives” (Hoffmann-La Roche Inc., priority 1985, dated 1986)
Converted amounts (≈) assume the structure as drawn. Structures can show the parent of a compound that is named as a salt. Where two headings read alike, the source gives them in different places.

Tests used:
Format in all cases: cell-based
P. mirabilis 503-1136 = test: In vitro antibacterial activity (MIC); conditions: Proteus mirabilis, 5031136, P. mirabilis 503-1136; read-out: MIC
Summary of the method: (§1)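 Mueller-Hinton broth carries the compound at 128–0.008 μg/ml; diluted drug may be used fresh or stored frozen at -10° to -70° C before use. Wells are seeded with a 10^-2 dilution of overnight culture and incubated overnight at 37° C.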

P. aeruginosa 5712 = test: In vitro antibacterial activity (MIC); conditions: Pseudomonas aeruginosa; P. aeruginosa 5712; read-out: MIC
Summary of the method: as §1

P. aeruginosa 5700 = test: In vitro antibacterial activity (MIC); conditions: Pseudomonas aeruginosa, 5700, P. aeruginosa 5700; read-out: MIC
Summary of the method: as §1

P. mirabilis 620A = test: In vitro antibacterial activity (MIC); conditions: Proteus mirabilis, 620A, P. mirabilis 620A; read-out: MIC
Summary of the method: as §1

P. mirabilis 90 = test: In vitro antibacterial activity (MIC); conditions: Proteus mirabilis, 90, P. mirabilis 90; read-out: MIC
Summary of the method: as §1

S. faecalis C1 = test: In vitro antibacterial activity (MIC); conditions: Enterococcus faecalis; S. faecalis C1; read-out: MIC
Summary of the method: as §1

C. diversus CDC 1663-72 = test: In vitro antibacterial activity (MIC); conditions: Citrobacter koseri, CDC166372
Summary of the method: as §1

S. pyogenes 503-782 = test: In vitro antibacterial activity (MIC); conditions: Streptococcus pyogenes, 503782; S. pyogenes 503-782; read-out: MIC
Summary of the method: as §1

S. aureus Smith = test: In vitro antibacterial activity (MIC); conditions: Staphylococcus aureus, S. aureus Smith; read-out: MIC
Summary of the method: as §1

S. aureus 1059B = test: In vitro antibacterial activity (MIC); conditions: Staphylococcus aureus, read-out: MIC
Summary of the method: as §1

P. aeruginosa Stone 130 = test: In vitro antibacterial activity (MIC); conditions: Pseudomonas aeruginosa, STONE130, read-out: MIC
Summary of the method: as §1

E. cloacae 24 = test: In vitro antibacterial activity (MIC); conditions: Enterobacter cloacae, 24, E. cloacae 24; read-out: MIC
Summary of the method: as §1

S. marcescens S147 = test: In vitro antibacterial activity (MIC); conditions: Serratia marcescens; S. marcescens S147; read-out: MIC
Summary of the method: as §1

S. marcescens S1 = test: In vitro antibacterial activity (MIC); conditions: Serratia marcescens, S1, S. marcescens S1; read-out: MIC
Summary of the method: as §1

P. vulgaris 100 = test: In vitro antibacterial activity (MIC); conditions: Proteus vulgaris
Summary of the method: as §1

P. aeruginosa B = test: In vitro antibacterial activity (MIC); conditions: Pseudomonas aeruginosa, read-out: MIC
Summary of the method: as §1

S. marcescens S714 = test: In vitro antibacterial activity (MIC); conditions: Serratia marcescens, S714, S. marcescens S714; read-out: MIC
Summary of the method: as §1

C. freundii CDC6 = test: In vitro antibacterial activity (MIC); conditions: Citrobacter freundii
Summary of the method: as §1

P. aeruginosa POW 151 = test: In vitro antibacterial activity (MIC); conditions: Pseudomonas aeruginosa, POW151
Summary of the method: as §1

S. marcescens S5 = test: In vitro antibacterial activity (MIC); conditions: Serratia marcescens, S5, S. marcescens S5; read-out: MIC
Summary of the method: as §1

P. vulgaris 101 = test: In vitro antibacterial activity (MIC); conditions: Proteus vulgaris, 101, P. vulgaris 101; read-out: MIC
Summary of the method: as §1

E. coli 257 = test: In vitro antibacterial activity (MIC, Mueller-Hinton broth)
Method: Drug dilutions are prepared in Mueller-Hinton broth ranging from 128 to 0.008 μg/ml. The diluted agents are dispensed in 100 μl amounts into the wells of a 96-well tray and used immediately or frozen at -10° to -70° C. until needed. Using an automated inoculator, 1.5 μl of a 10^-2 dilution of an overnight culture is added to each well of the tray. The tops of the trays are then sealed using transparent tape and incubated overnight at 37° C. The trays are examined with the aid of a viewer. The lowest concentration at which no growth is observed is considered to be the minimum inhibitory concentration (MIC).

[1] = C. diversus CDC 1663-72, read-out: MIC
[2] = CDC6, C. freundii CDC6, read-out: MIC
[3] = Escherichia coli, 257, E. coli 257, read-out: MIC

Row | SMILES | MIC (P. mirabilis 503-1136) [µg/mL] | MIC (P. aeruginosa 5712) [µg/mL] | MIC (P. aeruginosa 5700) [µg/mL] | MIC (P. mirabilis 620A) [µg/mL] | MIC (P. mirabilis 90) [µg/mL] | MIC (S. faecalis C1) [µg/mL] | MIC (S. pyogenes 503-782) [µg/mL] | MIC (S. aureus Smith) [µg/mL] | MIC (S. aureus 1059B) [µg/mL] | MIC (P. aeruginosa Stone 130) [µg/mL] | MIC (E. cloacae 24) [µg/mL] | MIC (S. marcescens S147) [µg/mL] | MIC (S. marcescens S1) [µg/mL] | MIC (P. vulgaris 100; P. vulgaris 100, read-out: MIC) [µg/mL] | MIC (P. aeruginosa B) [µg/mL] | MIC (S. marcescens S714) [µg/mL] | MIC (C. freundii CDC6; [2]) [µg/mL] | MIC (P. aeruginosa POW 151) [µg/mL] | MIC (S. marcescens S5) [µg/mL] | MIC (P. vulgaris 101) [µg/mL] | further results
1 | CC1(C)S[C@@H]2[C@H](N=CN3CCC(Cn4ccnc4CN)CC3)C(=O)N2[C@H]1C(=O)O [J, [2S-(2alpha,5alpha,6beta)]-6-[[[4-[[2-(aminomethyl)-1H-imidazol-1-yl]methyl]-1-piperidinyl]methylene]amino]-3,3-dimethyl-7-oxo-4-thia-1-azabicyclo[3.2.0]heptane-2-carboxylic acid hydrochloride] | 8 | > 128 | 0.5 | > 128 | 1 | 128 | 128 | 8 | > 128 | > 128 | 0.5 | 0.25 | 0.5 | 8 | 0.25 | 0.5 | 64 | > 128 | 0.5 | 8 | MIC (C. diversus CDC 1663-72; [1]): 0.031 µg/mL; MIC (E. coli 257; [3]): 0.125 µg/mL
2 | CC1(C)S[C@@H]2[C@H](N=CN3CCC(Cn4ccnc4N)CC3)C(=O)N2[C@H]1C(=O)O [H, [2S-(2alpha,5alpha,6beta)]-6-[[[4-[(2-amino-1H-imidazol-1-yl)methyl-1-piperidinyl]methylene]amino]-3,3-dimethyl-7-oxo-4-thia-1-azabicyclo[3.2.0]heptane-2-carboxylic acid hydrochloride] | 4 | 128 | 0.125 | 16 | 0.125 | 64 | 64 | 8 | 128 | > 128 | 0.25 | 0.031 | 0.125 | 4 | 0.5 | 0.25 | 0.062 | > 128 | 0.5 | 8 | MIC (C. diversus CDC 1663-72; [1]): 0.062 µg/mL; MIC (E. coli 257; Escherichia coli, 257): 0.25 µg/mL
3 | CC1(C)S[C@@H]2[C@H](N=CN3CCC(C4=NCCN4)CC3)C(=O)N2[C@H]1C(=O)O [L, [2S-(2alpha,5alpha,6beta)]-6-[[[4-(4,5-dihydro-1H-imidazol-2-yl)-1-piperidinyl]methylene]amino]-3,3-dimethyl-7-oxo-4-thia-1-azabicyclo[3.2.0]heptane-2-carboxylic acid hydrochloride] | 8 | > 128 | 2 | > 128 | 2 | 32 | 32 | 4 | 64 | > 128 | 1 | 1 | 0.5 | 32 | 0.5 | 2 | 0.5 | > 128 | 4 | 32 | MIC (C. diversus CDC 1663-72; [1]): 0.5 µg/mL; MIC (E. coli 257; [3]): 1 µg/mL
4 | Cc1nccn1CCCC1CCN(C=N[C@@H]2C(=O)N3[C@@H]2SC(C)(C)[C@@H]3C(=O)O)CC1 [F, [2S-(2alpha,5alpha,6beta)]-3,3-dimethyl-6-[[[4-[3-(2-methyl-1H-imidazol-1-yl)propyl]-1-piperidinyl]methylene]amino]-7-oxo-4-thia-1-azabicyclo[3.2.0]heptane-2-carboxylic acid 1.15 molar hydrochloride 1.75 molar hydrate] | 8 | > 128 | 0.5 | 16 | 0.5 | 128 | 128 | 8 | 64 | > 128 | 0.25 | 0.25 | 0.5 | 16 | 0.25 | 1 | 0.062 | > 128 | 1 | 16 | MIC (C. diversus CDC 1663-72; [1]): 0.062 µg/mL; MIC (E. coli 257; [3]): 0.125 µg/mL
5 | Cc1nc(C)n(CCCC2CCN(C=N[C@@H]3C(=O)N4[C@@H]3SC(C)(C)[C@@H]4C(=O)O)CC2)c1C [E, [2S-(2alpha,5alpha,6beta)]-6[[4-[3-[(2,4,5-trimethyl-1H-imidazol-1-yl)propyl]-1-piperidinyl]methylene]amino]-3,3-dimethyl-7-oxo-4-thia-1-azabicyclo[3.2.0]heptane-2-carboxylic acid hydrate hydrochloride] | 4 | > 128 | > 128 | 128 | 0.5 | 128 | 128 | 8 | 64 | > 128 | 0.5 | 0.5 | 1 | 8 | > 128 | 1 | 0.125 | > 128 | 1 | 4 | MIC (C. diversus CDC 1663-72; [1]): 0.062 µg/mL; MIC (E. coli 257; [3]): 0.062 µg/mL
6 | CC1(C)S[C@@H]2[C@H](N=CN3CCC(CCCn4ccnc4)CC3)C(=O)N2[C@H]1C(=O)O [C, [2S-(2alpha,5alpha,6beta)]-6-[[4-[3-(1H-imidazol-1-yl)propyl]-1-piperidinyl]methylene]amino]-3,3-dimethyl-7-oxo-4-thia-1-azabicyclo[3.2.0]heptane-2-carboxylic acid 1.2 mole hydrochloride monohydrate] | 128 | > 128 | 16 | > 128 | 32 | > 128 | > 128 | > 128 | > 128 | > 128 | 32 | 16 | 128 | > 128 | 8 | 32 | 16 | > 128 | 64 | 128 | MIC (C. diversus CDC 1663-72; [1]): 4 µg/mL; MIC (E. coli 257; [3]): 2 µg/mL
7 | CCc1nc(C)cn1CCCC1CCN(C=N[C@@H]2C(=O)N3[C@@H]2SC(C)(C)[C@@H]3C(=O)O)CC1 [G, [2S-(2alpha,5alpha,6beta)]-6-[[[4-[3-(2-ethyl-4methyl-1H-imidazol-1-yl)propyl]piperidinyl]methylene]amino]-3,3-dimethyl-7-oxo-4-thia-1-azabicyclo[3.2.0]heptane-2-carboxylic acid hydrochloride] | 16 | > 128 | 1 | 64 | 1 | 128 | 128 | 8 | 128 | > 128 | 0.5 | 1 | 1 | – | 0.25 | 8 | 0.25 | > 128 | 2 | 16 | MIC (C. diversus CDC 1663-72): 0.125 µg/mL; MIC (P. vulgaris 100; 100): 32 µg/mL; MIC (E. coli 257; Escherichia coli, 257): 0.25 µg/mL
8 | CC1(C)S[C@@H]2[C@H](N=CN3CCC(Cn4ccnc4)CC3)C(=O)N2[C@H]1C(=O)O [Compound A] | 8 (≈ 20.4 µM) | > 128 | 0.25 (≈ 0.639 µM) | 16 (≈ 40.9 µM) | 1 (≈ 2.55 µM) | 128 (≈ 327 µM) | 128 (≈ 327 µM) | 8 (≈ 20.4 µM) | 32 (≈ 81.7 µM) | > 128 | 0.5 (≈ 1.28 µM) | 0.25 (≈ 0.639 µM) | 0.25 (≈ 0.639 µM) | 8 (≈ 20.4 µM) | 0.25 (≈ 0.639 µM) | 1 (≈ 2.55 µM) | – | > 128 | 2 (≈ 5.11 µM) | 16 (≈ 40.9 µM) | MIC (C. diversus CDC 1663-72): 0.125 µg/mL (≈ 0.319 µM); MIC (C. freundii CDC6; CDC6): 0.125 µg/mL (≈ 0.319 µM); MIC (E. coli 257; Escherichia coli, 257): 0.125 µg/mL (≈ 0.319 µM)
